# Laboratory results reported in US20090023186A1, “USE OF VALPROIC ACID FOR ENHANCING PRODUCTION OF RECOMBINANT PROTEINS IN MAMMALIAN CELLS” (EXCELLGENE SA, priority 2007, published 2009).
# Assays:
# CHO DG44 cells = assay: Multiple VPA additions, IgG batch titer by ELISA (Example 3); type: cell-based, Chinese Hamster; conditions: day 10 after transfection
# Procedure: 10 million suspension-adapted HEK293E cells were resuspended in 0.5 ml of Ex-Cell 293 HEK 293 serum-free medium with 4 mmol/l L-glutamine (Cat. No. 14571C-[…]; Lot No. 6A0093; SAFC Biosciences, Lenexa, Kans., USA, “Ex-Cell” medium; note: “Ex-Cell” medium-as used herein-refers to a medium comprising 4 mmol/l L-glutamine) in a 50-ml filter tube each (TPP AG, Trasadingen, Switzerland; Cat. No. 87050, Lot 20050174). In a separate set, 10 million suspension-adapted CHO DG44 cells were resuspended in 0.5 ml of ProCHO5 serum-free medium with 4 mmol/[…] hypoxanthine and 0.194 g/l thymidine (BioWhittaker (Lonza), Belgium; Cat. No. BE12-[…]; Lot No. 7 MB0040; “ProCHO5” medium; note: “ProCHO5” medium-as used herein-refers to a medium comprising 4 mmol/[…] hypoxanthine and 0.194 g/l thymidine) in a 50-ml filter tube each (TPP AG, Trasadingen, Switzerland; Cat. No. 87050, Lot 20050174). Then 12.5 μg plasmid DNA at a concentration of 1 μg/μl was added in each tube with the following composition 50% (6.25 μg) p-LC (SEQ ID NO: 1) 50% (6.25 μg) p-HC (SEQ ID NO: 3). Plasmid p-LC comprises the genetic information for the production of the light chain of an IgG antibody, plasmid p-HC comprises the genetic information for the production of the heavy chain of an IgG antibody. The particular vector constructs used in the present invention can also be obtained from the inventors. The inventors can be contacted via e-mail at […]. […] In short, Goat anti-human kappa light chain IgG (Biosource) was used for coating the ELISA-plates, and with AP-conjugated goat anti-human gamma chain IgG (Biosource) the synthesized IgG1 was detected. […] Absorption was measured at 405 nm against 490 nm using a microplate reader (SPECTRAmaxTM340; Molecular Devices, Palo Alto, Calif., USA).
# HEK293E cells = assay: Preferred embodiment: transient IgG expression with p18 and p21 co-transfection, batch titer by ELISA; type: cell-based, Human; conditions: day 14 after transfection
# Procedure: 20 million suspension-adapted HEK293E cells were resuspended in 1 ml of Ex-Cell 293 HEK 293 serum-free medium with 4 mmol/l L-glutamine (Cat. No. 14571C-[…]; Lot No. 6A0093; SAFC Biosciences, Lenexa, Kans., USA, “Ex-Cell” medium; note: “Ex-Cell” medium-as used herein-refers to a medium comprising 4 mmol/l L-glutamine) in a 50-ml filter tube each (TPP AG, Trasadingen, Switzerland; Cat. No. 87050, Lot 20050174). Then 50 μg plasmid DNA at a concentration of 1 μg/μl was added in each tube with the following composition […] Plasmid p-LC comprises the genetic information for the production of the light chain of an IgG antibody, plasmid p-HC comprises the genetic information for the production of the heavy chain of an IgG antibody, plasmid p-p18 comprises the genetic information for the protein p18, and plasmid p-p21 comprises the genetic information for the protein p21. The particular vector constructs used in the present invention can also be obtained from the inventors. The inventors can be contacted via e-mail at […]. Moreover, commercial services do exist that produce any desired nucleotide sequence even comprising several kilobase pairs including complete expression cassettes in plasmid backgrounds (e.g., Invitrogen, Carlsbad, USA; Geneart, Germany.) Thus, providing the genetic sequence information of the plasmids should enable one of ordinary skill in the art to order the plasmids of the present invention at one of the commercial services listed. After shortly mixing the DNA with the cells by gentle shaking, 100 μg of 25-kd linear polyethyleneimine (“PEI”; Polysciences, Eppelheim, Germany; [2]) were added at a concentration of 1 μg/μl to each of the tubes. After shortly mixing by gentle shaking, the filter tubes containing the cells together with the DNA and PEI were transferred into an orbital shaker (Kühner Shaker Cabinet ISF-4-W, “Kühner shaker”, Kühner AG, Birsfelden, Switzerland), and the cells were incubated for 3 hours at 37° C. in a 5% CO2 atmosphere under shaking at 180 rpm. After that time, 4 ml of Ex-Cell medium were added to each of the filter tubes. […] No. B5887-1G; Sigma-Aldrich Chemie GmbH, Industriestrasse 25, CH-9471 Buchs SG) was added to the corresponding tubes at the corresponding final concentrations. […] The ELISA was performed as published in prior art. In short, Goat anti-human kappa light chain IgG (Biosource) was used for coating the ELISA-plates, and with AP-conjugated goat anti-human gamma chain IgG (Biosource) the synthesized IgG1 was detected. NPP was used as a substrate for the alkaline phosphatase. Absorption was measured at 405 nm against 490 nm using a microplate reader (SPECTRAmaxTM340; Molecular Devices, Palo Alto, Calif., USA).
smiles,measurement,setting,value
"CCCC(CCC)C(=O)O [VPA, valproic acid]",Batch titer,CHO DG44 cells; 0.5 mmol/l VPA at day 0,35.8 mg/L
same,"batch titers, direct addition versus slowly increasing concentration",CHO DG44 cells,statistically not different
same,Batch titer,"CHO DG44 cells; escalating dosage, 0.125 to 0.5 mmol/l in 0.125 mmol/l increments every other day",37.9 mg/L
same,Batch titer,"HEK293E cells; 3.8 mmol/l VPA, IgG with p18 and p21",962 ± 73 mg/L
same,Fold increase over control,HEK293E cells; 3.8 mmol/l VPA,13.2 fold
same,batch titers compared to adding sodium butyrate,HEK293E cells,higher
